In one series the target is T1, CYP1A2 (Homo sapiens, UniProt P05177).
T1 sequence (P05177 1-516): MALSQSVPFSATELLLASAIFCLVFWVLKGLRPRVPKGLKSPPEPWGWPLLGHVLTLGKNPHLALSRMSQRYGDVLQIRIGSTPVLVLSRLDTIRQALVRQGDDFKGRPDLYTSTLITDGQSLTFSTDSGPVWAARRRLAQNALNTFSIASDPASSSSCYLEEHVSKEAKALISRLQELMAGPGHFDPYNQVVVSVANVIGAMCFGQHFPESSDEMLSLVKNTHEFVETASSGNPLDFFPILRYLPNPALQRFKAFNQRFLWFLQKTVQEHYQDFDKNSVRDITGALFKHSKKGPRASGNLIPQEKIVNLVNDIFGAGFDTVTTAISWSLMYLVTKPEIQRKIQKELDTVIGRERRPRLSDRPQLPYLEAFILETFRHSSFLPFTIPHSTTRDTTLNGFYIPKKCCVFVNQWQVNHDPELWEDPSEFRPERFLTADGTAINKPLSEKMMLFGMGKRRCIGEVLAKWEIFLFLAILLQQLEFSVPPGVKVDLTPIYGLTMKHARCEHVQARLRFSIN
To be noted: in vitro; cited from earlier work.

The conditions of series [1]: human; cited from earlier work.
The conditions of series [2]: cited from earlier work.
Series [3] has as its system non-small cell lung cancer, prostate cancer and breast cancer. The conditions noted are these: cited from earlier work.
The subject of the next series is NAT2. To be noted: cancer individuals phenotyped with caffeine; cited from earlier work.
The conditions of series [4]: mice, dogs, and rats; cited from earlier work.
For series [5] the following is noted: dogs; single-bolus and daily for 5 days schedules, highest doses administered; cited from earlier work.
A further series deals with M5076 sarcoma cell line. To be noted: cited from earlier work.
Series [6] has as its system p388 leukemia cells lines. To be noted: cited from earlier work.
The next series has as its system B16 melanoma. The conditions noted are these: cited from earlier work.
Series [7] is described as follows: Stability of reconstituted amonafide solution. Format: physicochemical. As to the method: Intact vials should be stored under refrigeration (2-8° C.). […] However, the reconstituted solution contains no antibacterial preservatives and should be used immediately. It is advised that the reconstituted product be discarded 8 hours after initial entry.
Add the appropriate dose of amonafide to a bag of 100 mL of normal saline prior to administration. Amonafide is very unstable in dextrose-containing solutions and these should not be used for reconstitution or for administration.

Series [8] relates to L1210 leukemia cells lines. The conditions noted are these: cited from earlier work.

These results are taken from US20030190671A1, “Use of metabolic phenotyping in individualized treatment with amonafide” (McGill University, priority 2001, published 2003).

Molecules are shown by their SMILES. Read-outs that look alike come from different tables or passages of the source.

`CN(C)CCN1C(=O)c2cccc3cc(N)cc(c23)C1=O` [amonafide]: on CYP1A2, the “substrate of CYP1A2” value is on record as “substrate for CYP1A2”. Besides, in series [1], the “binding to body tissues” value is “highly bound to body tissues” and the volume of distribution entry is “large”. Moreover, in series [2] (bolus dose, OSU study (Leiby et al.)), the “maximum tolerated dose (MTD)” value is 1125 mg/m^2. Besides, in [2] (daily times five every 21 days, MDA (Legha et al.)), the “maximum tolerated dose (MTD)” value is reported as 400 mg/m^2. Also, the “maximum tolerated dose (MTD)” value in [2] (daily times five every 21 days, OSU (Leiby et al.)) is given as 250 mg/m^2. Besides, the dose-limiting toxicity entry in series [2] (single bolus and daily times five schedules) was “myelosuppression”. Further, the “maximum tolerated dose (MTD)” value in series [2] (single bolus, UTSA (Saez et al.)) was 800 mg/m^2. Moreover, in series [3] (human, in vivo), the “antitumor activity in non-small cell lung cancer, prostate cancer and breast cancer” value is recorded as “antitumor activity”; the “most common dose-limiting side effect” value was “granulocytopenia”. In series [3] (previous clinical studies), the “neutropenia, day of nadir counts” value is 12 to 15 days and the “neutropenia, day of recovery” value is about 21 days. Besides, in the series on NAT2, the “area under the plasma concentration-time curve, fast vs. slow acetylators” value is listed as “significantly greater in fast acetylators” and the “toxicity (myelosuppression), fast vs. slow acetylators” value is on record as “fast acetylators had greater toxicity than slow acetylators”. Also, in [4], the preclinical toxicity entry was “reversible hematopoietic, gastrointestinal, renal and hepatic toxicity”. Further, the neurotoxicity entry in series [5] is “signs indicative of neurotoxicity”. The “activity against M5076 sarcoma” value in the series on M5076 sarcoma cell line was “significant activity”. Moreover, the “activity against p388 leukemia” value in series [6] is recorded as “significant activity”. Moreover, the “activity against B16 melanoma” value with B16 melanoma is “significant activity”. Moreover, the “stability in dextrose-containing solutions” value in series [7] is “very unstable”. In series [7] (reconstituted in normal saline, over 14 days at room temperature or under refrigeration), the “decomposition of reconstituted solution” value is on record as “no decomposition”. Besides, in series [8], the “activity against L1210 leukemia” value is recorded as “significant activity”.
